According to patent US4420484A, “Basic amino or ammonium antimicrobial agent-polyethylene glycol ester surfactant-betaine and/or amine oxide surfactant compositions and method of use therof” (Sterling Drug Inc., priority 1981, dated 1983):

Test system: Staphylococcus aureus ATCC 6538
Assay: Compatibility with prototype vehicle, serial dilution test (MIC)
Type: cell-based
Conditions: Id expressed as free base, IVa-IVc expressed as cation, 16-18 h, 37° C
Description: Compatability of the antimicrobial agents of Formula Id, Formula IIa, Formula IVa (A=Br), Formula IVb (A=Br) and Formula IVc (A=Br) with a prototype vehicle of the invention was tested by a serial dilution test against Staphylococcus aureus ATCC 6538. Volumes of two milliliters were used. Dilutions were in tryptose-phosphate broth. Incubation was for 16-18 hours at 37° C. Growth was verified with 2,3,5-triphenyltetrazoliumchloride. The inoculum was 1.8×10^5 viable cells per tube. There follows the formula of the prototype vehicle. […]

Row | Minimum Inhibitory Concentration (MIC) (added vehicle 0 μg/ml) [µg/mL] | Minimum Inhibitory Concentration (MIC) (added vehicle 15.6 μg/ml) [µg/mL] | Minimum Inhibitory Concentration (MIC) (added vehicle 31.2 μg/ml) [µg/mL] | Minimum Inhibitory Concentration (MIC) (added vehicle 62.5 μg/ml) [µg/mL] | Minimum Inhibitory Concentration (MIC) (added vehicle 125.0 μg/ml) [µg/mL] | Minimum Inhibitory Concentration (MIC) (added vehicle 250.0 μg/ml) [µg/mL] | Minimum Inhibitory Concentration (MIC) (added vehicle 500.0 μg/ml) [µg/mL] | Minimum Inhibitory Concentration (MIC) (added vehicle 1000.0 μg/ml) [µg/mL] | Minimum Inhibitory Concentration (MIC) (added vehicle 2000.0 μg/ml) [µg/mL] | Minimum Inhibitory Concentration (MIC) (added vehicle 4000.0 μg/ml) [µg/mL] | Minimum Inhibitory Concentration (MIC) (added vehicle 8000.0 μg/ml) [µg/mL] | Structure (SMILES)
1 | 0.25 | 0.25 | 0.25 | 0.25 | 0.125 | 0.0625 | 0.125 | 0.125 | 0.125 | 0.25 | 0.25 | CCCCC(CC)CN=c1ccn(CCCCCCCCCCCCn2ccc(=NCC(CC)CCCC)cc2)cc1 (stereo not shown) [Compound of Formula IVc]
2 | 0.5 | 0.5 | 0.5 | 0.5 | 0.5 | 0.25 | 0.125 | 0.125 | 0.125 | 0.25 | 0.25 | CCCCCCCCN=c1ccn(CCCCCCCCCCn2ccc(=NCCCCCCCC)cc2)cc1 [Compound of Formula IVb]
3 | 0.39 | 0.195 | 0.39 | 0.39 | 0.10 | 0.10 | 0.10 | 0.195 | 0.10 | 0.195 | 0.10 | CCCCCCCN=c1ccn(CCCCCCCCCCCCn2ccc(=NCCCCCCC)cc2)cc1 [Compound of Formula IVa]
4 | 0.25 | 0.25 | 0.25 | 0.25 | 0.25 | 0.25 | 0.25 | 0.25 | 0.50 | 0.50 | 0.50 | CCCCCCCNC(=N)NC(=N)NCCCCCCNC(=N)NC(=N)NCCCCCCC [Compound of Formula Id]
5 | 0.5 | 0.5 | 0.5 | 0.5 | 0.5 | 0.5 | 0.5 | 1.0 | 1.0 | 1.95 | 1.95 | CCCCCCCCCCCCCC[N+](C)(C)Cc1ccccc1 [Compound of Formula IIa, benzalkonium chloride, reference compound]
